Test results from patent US9044397B2, “Medical devices with galvanic particulates” (Ethicon, Inc., priority 2009, dated 2015).

Tests used:
Assay type in all cases: cell-based
MRSA [1] = test: Zone of inhibition on TSA agar versus copper acetate and zinc acetate; conditions: about 6 log CFU, 37° C. 24 hr
Method: (§1) Zone of inhibition testing was performed on agar discs containing copper-zinc galvanic particulates from Example 1(a) at 0.5%, Zn acetate at 0.5%, and Cu acetate at 0.1%. The discs were placed on TSA agar surface, inoculated with about 6 log CFU of MRSA or C. albicans, and incubated at 37° C. for 24 hr.

C. albicans [2] = test: as above; conditions: about 6 log CFU, 37° C. 24 hr
Method: as §1

MRSA [3] = test: Sustained efficacy, zone of inhibition day 1 and re-plated day 2; conditions: 1% in agar disc
Method: (§2) Agars discs containing either galvanic particulates as described in Example 1(a) or zinc acetate at 1% were placed on TSA agar surface inoculated with about 6 log CFU of MRSA or C. albicans and incubated at 37° C. for 24 hr (day-1).

C. albicans [4] = test: as above; conditions: 1% in agar disc
Method: as §2

[5] = same disc moved to newly inoculated plate, day-2

Compound	zone of inhibition, MRSA (MRSA [1]; 0.1% in agar disc)	zone of inhibition, C. albicans (C. albicans [2]; 0.1% in agar disc)	zone of inhibition, MRSA, day 1 (MRSA [3]; day-1, 24 hr at 37° C.)	zone of inhibition, MRSA, day 2 (MRSA [3]; [5])	zone of inhibition, C. albicans, day 1 (C. albicans [4]; day-1, 24 hr at 37° C.)	zone of inhibition, C. albicans, day 2 (C. albicans [4]; [5])	zone of inhibition, MRSA (MRSA [1]; 0.5% in agar disc)	zone of inhibition, C. albicans (C. albicans [2]; 0.5% in agar disc)
copper acetate	did not show any visible zone of inhibition	did not show any visible zone of inhibition	–	–	–	–	–	–
CC(=O)[O-].CC(=O)[O-].[Zn+2] [Zinc Acetate, zinc acetate]	–	–	produce a zone of inhibition	did not show any inhibition	produce a zone of inhibition	did not show any inhibition	smaller zone of inhibition, approximately one half the radius	smaller zone of inhibition, approximately one half the radius
